Experimental data reported in ChEMBL document CHEMBL4359847, “Novel N-aryl nicotinamide derivatives: Taking stock on 3,6-diazabicyclo[3.1.1]heptanes as ligands for neuronal acetylcholine receptors” (Eur J Med Chem, 2019).
Calls of active or inactive are those of the source. No cut-off for these calls is given here.

Columns and labels:
[1] = molecular target: T1, Neuronal acetylcholine receptor; alpha4/beta2 (Rattus norvegicus, UniProt P09483+P12390); test: Displacement of [3H]epibatidine from alpha4beta2 nAChR in rat cerebral cortex membrane; type: cell membranes
T1 sequence (P09483 whole entry): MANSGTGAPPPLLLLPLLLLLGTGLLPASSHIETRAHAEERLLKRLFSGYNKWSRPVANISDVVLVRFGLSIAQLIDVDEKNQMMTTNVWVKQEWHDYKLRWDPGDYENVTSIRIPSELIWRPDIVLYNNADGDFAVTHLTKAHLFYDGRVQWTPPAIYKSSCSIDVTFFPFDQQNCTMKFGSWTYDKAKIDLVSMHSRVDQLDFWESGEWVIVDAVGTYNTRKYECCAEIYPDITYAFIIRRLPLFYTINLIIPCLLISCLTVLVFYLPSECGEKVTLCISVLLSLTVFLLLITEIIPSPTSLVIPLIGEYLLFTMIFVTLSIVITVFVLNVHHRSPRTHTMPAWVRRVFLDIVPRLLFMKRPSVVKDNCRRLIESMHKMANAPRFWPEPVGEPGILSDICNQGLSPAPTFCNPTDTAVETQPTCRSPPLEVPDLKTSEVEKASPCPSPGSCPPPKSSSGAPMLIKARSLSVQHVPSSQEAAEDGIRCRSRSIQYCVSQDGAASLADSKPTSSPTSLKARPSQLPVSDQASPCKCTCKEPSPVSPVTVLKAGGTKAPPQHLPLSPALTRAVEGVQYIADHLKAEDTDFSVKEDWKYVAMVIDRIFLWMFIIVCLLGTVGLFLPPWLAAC
T1 sequence (P12390 whole entry): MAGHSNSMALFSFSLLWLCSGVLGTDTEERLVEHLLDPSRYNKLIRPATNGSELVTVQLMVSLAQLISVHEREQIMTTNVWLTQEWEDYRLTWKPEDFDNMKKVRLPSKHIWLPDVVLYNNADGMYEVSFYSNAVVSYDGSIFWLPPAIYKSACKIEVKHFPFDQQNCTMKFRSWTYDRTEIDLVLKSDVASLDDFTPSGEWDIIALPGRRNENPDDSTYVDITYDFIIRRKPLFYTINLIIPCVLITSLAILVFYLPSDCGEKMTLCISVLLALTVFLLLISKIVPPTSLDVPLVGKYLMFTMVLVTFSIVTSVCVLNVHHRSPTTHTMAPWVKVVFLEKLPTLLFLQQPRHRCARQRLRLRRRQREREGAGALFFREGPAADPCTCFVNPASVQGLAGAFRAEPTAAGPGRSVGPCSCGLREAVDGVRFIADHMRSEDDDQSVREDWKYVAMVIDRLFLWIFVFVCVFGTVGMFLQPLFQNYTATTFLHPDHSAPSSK

[2] = molecular target: Neuronal acetylcholine receptor subunit alpha-7 (Rattus norvegicus, UniProt Q05941); test: Displacement of [125I]alpha-bungarotoxin from alpha7nAChR in rat hippocampus membrane; type: cell membranes
Sequence of Neuronal acetylcholine receptor subunit alpha-7 (Q05941 whole entry): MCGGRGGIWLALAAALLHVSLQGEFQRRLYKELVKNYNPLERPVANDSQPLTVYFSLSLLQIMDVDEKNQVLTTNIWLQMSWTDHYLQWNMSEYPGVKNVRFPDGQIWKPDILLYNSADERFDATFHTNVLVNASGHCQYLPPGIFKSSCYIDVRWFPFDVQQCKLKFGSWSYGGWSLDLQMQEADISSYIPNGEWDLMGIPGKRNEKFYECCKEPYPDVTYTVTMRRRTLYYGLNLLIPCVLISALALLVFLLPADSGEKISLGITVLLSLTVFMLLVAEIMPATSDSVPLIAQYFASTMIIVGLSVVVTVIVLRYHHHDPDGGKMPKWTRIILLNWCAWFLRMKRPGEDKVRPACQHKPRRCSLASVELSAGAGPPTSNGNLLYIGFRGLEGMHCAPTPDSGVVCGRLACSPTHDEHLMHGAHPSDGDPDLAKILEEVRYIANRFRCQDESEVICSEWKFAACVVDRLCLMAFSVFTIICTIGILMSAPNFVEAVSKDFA

Rattus norvegicus = species: Rattus norvegicus; test: Selectivity index, ratio of Ki for alpha7 nAChR in rat hippocampus membrane to Ki for alpha4beta2 nAChR in rat cerebral cortex membrane; type: cell membranes
[3] = molecular target: T2, Neuronal acetylcholine receptor; alpha3/beta4 (Homo sapiens, UniProt P30926+P32297); test: Displacement of [3H]epibatidine from human alpha3beta4 nAChR transfected in […] cell membrane; type: cell membranes
T2 sequence (P30926 whole entry): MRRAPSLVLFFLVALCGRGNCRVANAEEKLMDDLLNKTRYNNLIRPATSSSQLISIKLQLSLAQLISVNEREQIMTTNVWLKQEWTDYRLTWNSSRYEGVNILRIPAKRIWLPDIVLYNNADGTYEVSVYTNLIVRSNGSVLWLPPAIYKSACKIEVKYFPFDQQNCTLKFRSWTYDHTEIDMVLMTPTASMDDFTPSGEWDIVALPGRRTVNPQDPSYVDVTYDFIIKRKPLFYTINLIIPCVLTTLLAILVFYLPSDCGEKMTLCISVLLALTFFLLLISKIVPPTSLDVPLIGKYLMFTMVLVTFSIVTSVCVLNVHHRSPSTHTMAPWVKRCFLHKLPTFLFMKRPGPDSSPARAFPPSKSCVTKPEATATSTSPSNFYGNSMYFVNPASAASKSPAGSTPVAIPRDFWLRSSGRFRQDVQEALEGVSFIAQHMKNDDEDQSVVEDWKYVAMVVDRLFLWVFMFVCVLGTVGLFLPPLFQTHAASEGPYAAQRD
T2 sequence (P32297 whole entry): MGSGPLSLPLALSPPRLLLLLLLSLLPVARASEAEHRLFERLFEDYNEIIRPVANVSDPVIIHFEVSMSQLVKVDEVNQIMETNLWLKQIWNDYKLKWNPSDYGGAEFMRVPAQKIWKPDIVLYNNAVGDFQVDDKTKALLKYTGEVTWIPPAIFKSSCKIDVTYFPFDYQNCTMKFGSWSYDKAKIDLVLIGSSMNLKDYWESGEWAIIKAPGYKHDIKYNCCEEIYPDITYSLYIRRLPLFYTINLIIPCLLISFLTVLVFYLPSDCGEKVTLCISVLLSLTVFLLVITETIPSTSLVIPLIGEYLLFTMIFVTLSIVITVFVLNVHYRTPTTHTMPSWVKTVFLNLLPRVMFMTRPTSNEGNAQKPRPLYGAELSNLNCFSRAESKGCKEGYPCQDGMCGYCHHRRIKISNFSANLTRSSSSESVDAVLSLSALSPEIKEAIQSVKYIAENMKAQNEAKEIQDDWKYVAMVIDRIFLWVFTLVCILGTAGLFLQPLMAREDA

[4] = Selectivity index, ratio of Ki for human alpha3beta4 nAChR in […] cell membrane to Ki for alpha4beta2 nAChR in rat cerebral cortex membrane; type: cell-based
[5] = molecular target: T3, Neuronal acetylcholine receptor; alpha4/beta2 (Homo sapiens, UniProt P17787+P43681); test: Agonist activity at human alpha4beta2 nAChR expressed in GH4C1 cells assessed as increase in inward channel current measured after 3 to 4 days at -70 mV holding potential by patch clamp assay relative to acetylcholine; type: cell-based
T3 sequence (P17787 whole entry): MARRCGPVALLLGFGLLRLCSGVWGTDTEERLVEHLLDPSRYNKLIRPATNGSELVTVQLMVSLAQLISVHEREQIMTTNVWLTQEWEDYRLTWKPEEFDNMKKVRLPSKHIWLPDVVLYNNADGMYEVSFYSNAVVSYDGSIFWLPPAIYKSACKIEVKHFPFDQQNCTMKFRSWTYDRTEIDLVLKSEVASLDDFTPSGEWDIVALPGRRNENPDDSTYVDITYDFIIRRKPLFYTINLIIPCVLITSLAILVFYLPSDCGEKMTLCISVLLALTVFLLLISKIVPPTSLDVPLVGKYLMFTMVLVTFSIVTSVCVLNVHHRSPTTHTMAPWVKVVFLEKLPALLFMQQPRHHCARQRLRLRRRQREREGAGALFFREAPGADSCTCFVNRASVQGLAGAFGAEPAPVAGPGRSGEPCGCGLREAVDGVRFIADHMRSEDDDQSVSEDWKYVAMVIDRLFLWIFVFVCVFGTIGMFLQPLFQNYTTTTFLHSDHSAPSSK
T3 sequence (P43681 whole entry): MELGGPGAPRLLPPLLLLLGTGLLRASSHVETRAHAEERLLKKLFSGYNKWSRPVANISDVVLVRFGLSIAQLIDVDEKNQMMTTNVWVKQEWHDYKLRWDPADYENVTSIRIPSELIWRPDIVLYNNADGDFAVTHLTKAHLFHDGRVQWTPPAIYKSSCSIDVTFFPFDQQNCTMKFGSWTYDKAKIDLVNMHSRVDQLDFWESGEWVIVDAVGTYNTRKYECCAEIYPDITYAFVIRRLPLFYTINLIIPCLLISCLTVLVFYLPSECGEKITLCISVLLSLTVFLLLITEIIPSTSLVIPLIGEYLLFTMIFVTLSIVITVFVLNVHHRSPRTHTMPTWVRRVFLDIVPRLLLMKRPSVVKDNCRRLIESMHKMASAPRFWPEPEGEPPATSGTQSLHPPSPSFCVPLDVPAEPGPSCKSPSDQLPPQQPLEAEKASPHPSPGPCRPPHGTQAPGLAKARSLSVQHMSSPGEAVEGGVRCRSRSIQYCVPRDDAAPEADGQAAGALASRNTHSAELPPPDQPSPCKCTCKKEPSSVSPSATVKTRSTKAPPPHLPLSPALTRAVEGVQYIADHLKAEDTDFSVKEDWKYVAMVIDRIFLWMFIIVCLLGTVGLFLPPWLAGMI

[6] = molecular target: T3, Neuronal acetylcholine receptor; alpha4/beta2; test: Agonist activity at human alpha4beta2 nAChR expressed in GH4C1 cells assessed as increase in inward channel current measured after 3 to 4 days at -70 mV holding potential by patch clamp assay; type: cell-based
[7] = molecular target: T2, Neuronal acetylcholine receptor; alpha3/beta4; test: Agonist activity at human alpha3beta4 nAChR expressed in GH4C1 cells assessed as inward channel current at 0.01 to 100 uM measured after 3 to 4 days at -70 mV holding potential by patch clamp assay; type: cell-based
[8] = molecular target: T2, Neuronal acetylcholine receptor; alpha3/beta4; test: Agonist activity at human alpha3beta4 nAChR expressed in GH4C1 cells assessed as increase in inward channel current at >1 uM measured after 3 to 4 days at -70 mV holding potential by patch clamp assay; type: cell-based
[9] = molecular target: T2, Neuronal acetylcholine receptor; alpha3/beta4; test: Agonist activity at human alpha3beta4 nAChR expressed in GH4C1 cells assessed as increase in inward channel current measured after 3 to 4 days at -70 mV holding potential by patch clamp assay; type: cell-based
[10] = molecular target: T1, Neuronal acetylcholine receptor; alpha4/beta2; test: Displacement of [3H]cytisine from alpha4beta2 nAChR in rat brain cerebral cortex membrane incubated for 75 mins by scintillation counting method; type: cell membranes

Compound	Ki [1] [nM]	Ki [2] [nM]	Ratio Ki (Rattus norvegicus)	Ki [3] [nM]	Ratio Ki [4]	Imax [5] [%]	EC50 [6] [nM]	Activity [7]	Activity [8]	EC50 [9] [nM]	Ki [10] [nM]
O=C(Nc1ccc2c(c1)OCO2)c1cncc(N2CC3CC(C2)N3)c1	0.106	8400	79200	113	1070	–	–	–	–	–	–
O=C(c1cncc(N2CC3CC(C2)N3)c1)N1CCCc2ccccc21	0.196	> 50000	> 255000	62	316	–	–	–	–	–	–
O=C(Nc1cccc(Cl)c1)c1cncc(N2CC3CC(C2)N3)c1	0.042	22900	545000	59	1400	37	1000	inactive	–	–	–
O=C(Nc1ccc(I)cc1)c1cncc(N2CC3CC(C2)N3)c1	0.366	23400	63900	103	281	–	–	–	–	–	–
O=C(Nc1ccc(F)cc1F)c1cncc(N2CC3CC(C2)N3)c1	0.051	> 50000	> 980000	50	980	–	–	–	–	–	–
O=C(Nc1ccccc1)c1cncc(N2CC3CC(C2)N3)c1	1.1	2400	2180	192	174	–	–	–	–	–	–
O=C(Nc1ccc(F)cc1)c1cncc(N2CC3CC(C2)N3)c1	0.01	33200	3.32e+06	81	8100	41	520	–	Active	> 10000	–
O=C(NCc1ccccc1)c1cncc(N2CC3CC(C2)N3)c1	1.8	1070	594	1600	889	–	–	–	–	–	–
Clc1ccc(N2CC3CCC(C2)N3)cn1	–	–	–	–	–	–	–	–	–	–	0.95
O=C(c1cncc(N2CC3CC(C2)N3)c1)N1CCc2ccccc2C1	0.031	1000	32300	21	677	–	–	–	–	–	–
O=C(Nc1cccc(F)c1)c1cncc(N2CC3CC(C2)N3)c1	0.044	27900	634000	28	636	–	–	–	–	–	–
O=C(Nc1ccccc1F)c1cncc(N2CC3CC(C2)N3)c1	0.315	3400	10800	102	324	–	–	–	–	–	–
COc1cc(NC(=O)c2cncc(N3CC4CC(C3)N4)c2)cc(OC)c1	0.985	43100	43800	2000	2030	–	–	–	–	–	–
COc1ccc(NC(=O)c2cncc(N3CC4CC(C3)N4)c2)cc1OC	0.828	2300	2780	516	623	–	–	–	–	–	–
O=C(Nc1ccc(Cl)cc1)c1cncc(N2CC3CC(C2)N3)c1	0.404	13000	32200	123	304	–	–	–	–	–	–
CCc1cccc(NC(=O)c2cncc(N3CC4CC(C3)N4)c2)c1	1.3	> 50000	> 38500	306	235	–	–	–	–	–	–
COc1cccc(NC(=O)c2cncc(N3CC4CC(C3)N4)c2)c1	0.56	> 50000	> 89300	265	473	38	600	–	Active	> 10000	–
